Our source for the EC50 values is patent US20230391779A1, “BICYCLIC COMPOUNDS, COMPOSITIONS AND USE THEREOF” (Betta Pharmaceuticals Co., Ltd., priority 2020, published 2023).

This experiment has as its system TEAD-YAP/TAZ interaction. In words: CTGF ELISA assay. Type of experiment: cell-based, human. As to conditions: CTGF in culture supernatant of NCI-H2052 cells, 24 hours with compound. Here is the method:
The detection of CTGF expression level can assessed the binding activity of TEAD-YAP/TAZ transcription factor, and the CTGF expression level was quantified by SimpleStep ELISA® kit (Abcam, ab261851).
NCI-H2052 cells (Purchased from ATCC) were cultured in RPMI 1640 medium, adding 10% FBS and 1% Penicillin-Streptomycin Solution and 1 mM Sodium pyruvate. The day before compounds treatment, the cultured cells were washed with PBS and digested with trypsin, then centrifuged and collected. Discarded the supernatant, the cells were resuspended in fresh complete medium. After cells counted, cells were seeded at 6500 cells/well in 96-well plates. And then cells were cultured overnight in incubator (37° C., 5% CO2).
After the cells were cultured overnight, discarded the culture supernatant, then washed with PBS solution, cells were incubated with 200 μl medium containing compounds in each well. The starting concentration was 10 μM and serial dilution in DMSO and medium were performed to achieve a final DMSO concentration of 0.5% (Final compounds concentration were 10000, 2500, 625, 156, 39.1, 9.77, 2.44, 0.61 nM, 0 nM (0.5% DMSO), The cells were then cultured in incubator (37° C., 5% CO2). Cultured for 24 hours, the cells were centrifuged at 1500 RPM at 4° C. for 5 minutes, and then 50 μl of culture supernatant were tested for CTGF ELISA assay.
The Human CTGF SimpleStep ELISA® Kit (Abcam, ab261851) employs an affinity tag labeled capture antibody and a reporter conjugated detector antibody which immunocapture the sample analyte in solution. This entire complex (capture antibody/analyte/detector antibody) is in turn immobilized via immunoaffinity of an anti-tag antibody coating the well. To perform the assay, samples or standards are added to the wells, followed by the antibody mix (capture antibody/detector antibody). After incubation, the wells are washed to remove unbound material. TMB Development Solution is added and during incubation is catalyzed by HRP, generating blue coloration. This reaction is then stopped by addition of Stop Solution completing any color change from blue to yellow. Signal is generated proportionally to the amount of bound analyte and the intensity is measured at 450 nm. Firstly, prepare all reagents, samples, and standards as instructed. Add 50 μl standard or sample to appropriate wells. Then add 50 μl of the Antibody Cocktail to each well. Seal the plate and incubate for 1 hour at room temperature on a plate shaker. Wash each well with Wash Buffer three times. Add 100 μl of TMB Development Solution to each well and incubate for 10 minutes in the dark on a plate shaker. Add 100 μl of Stop Solution to each well. Shake plate on a plate shaker for 1 minute to mix. Record the OD at 450 nm. Determine the concentration of the target protein in the sample by the standard curve.
EC50 value was determined by fitting the concentration response curves using GraphPad Prism software. The compounds of the present invention were tested for their capacity to inhibit TEAD-YAP/TAZ interaction according to the fitted curves of CTGF concentration response to compounds.
(In general: An ELISA detects its analyte on a solid surface through an enzyme-linked reagent.)
Consider `C=CC(=O)N1CCC(n2nc(-c3ccc(C(F)(F)F)cc3)c3cccc(C#N)c32)C1` (stereo not drawn) [Compound 48, 1-(1-acryloylpyrrolidin-3-yl)-3-(4-(trifluoromethyl)phenyl)-1H-indazole-7-carbonitrile], for which the EC50 is 15 nM.
`C=CC(=O)N1CCC(n2nc(-c3ccc(C(F)(F)F)cc3)c3ccc(F)cc32)C1` (stereo not drawn) [Compound 50, 1-(3-(6-fluoro-3-(4-(trifluoro-methyl)phenyl)-1H-indazol-1-yl)-pyrrolidin-1-yl)prop-2-en-1-one]: the EC50 turned out to be 23 nM.
Next, `C=CC(=O)N1CCC(n2nc(-c3ccc(C(F)(F)F)cc3)c3cc(F)c(F)cc32)C1` (stereo not drawn) [Compound 51, 1-(3-(5,6-difluoro-3-(4-(trifluoro-methyl)phenyl)-1H-indazol-1-yl)-pyrrolidin-1-yl)prop-2-en-1-one]: 44 nM; `C=CC(=O)N1CCC(n2nc(-c3ccc(C(F)(F)F)cc3)c3ccc(OC)cc32)C1` (stereo not drawn) [Compound 54, 1-(3-(6-methoxy-3-(4-(trifluoro-methyl)phenyl)-1H-indazol-1-yl)-pyrrolidin-1-yl)prop-2-en-1-one]: 32 nM; `CC#CC(=O)N1CCC(n2nc(-c3ccc(C(F)(F)F)cc3)c3ccccc32)C1` (stereo not drawn) [Compound 55, 1-(3-(3-(4-(trifluoromethyl)phen-yl)-1H-indazol-1-yl)pyrrolidin-1-yl)but-2-yn-1-one]: 16 nM.
Next, `C/C=C/C(=O)N1CCC(n2nc(-c3ccc(C(F)(F)F)cc3)c3ccccc32)C1` (stereo not drawn) [Compound 56, (E)-1-(3-(3-(4-(trifluoromethyl)-phenyl)-1H-indazol-1-yl)pyrrol-idin-1-yl)but-2-en-1-one]: 70 nM; `C#CC(=O)N1CCC(n2nc(-c3ccc(C(F)(F)F)cc3)c3ccccc32)C1` (stereo not drawn) [Compound 57, 1-(3-(3-(4-(trifluoromethyl)phen-yl)-1H-indazol-1-yl)pyrrolidin-1-yl)prop-2-yn-1-one]: 82 nM.
For `C=CC(=O)N1CCC(n2nc(-c3ccc(C(F)(F)F)cc3)c3cccc(F)c32)C1` (stereo not drawn) [Compound 70, 1-(3-(7-fluoro-3-(4-(trifluoro-methyl)phenyl)-1H-indazol-1-yl)-pyrrolidin-1-yl)prop-2-en-1-one], the EC50 was 34 nM.
Next, `C=C(F)C(=O)N1CCC(n2nc(-c3ccc(C(F)(F)F)cc3)c3ncccc32)C1` (stereo not drawn) [Compound 71, 2-fluoro-1-(3-(3-(4-(trifluoro-methyl)phenyl)-1H-pyrazolo[4,3-b]pyridin-1-yl)pyrrolidin-1-yl)-prop-2-en-1-one]: 12 nM; `C=C(F)C(=O)N1CCC(n2nc(-c3ccc(C(F)(F)F)cc3)c3ncn(C)c(=O)c32)C1` (stereo not drawn) [Compound 77, 1-(1-(2-fluoroacryloyl)pyrrolidin-3-yl)-6-methyl-3-(4-(trifluoro-methyl)phenyl)-1,6-dihydro-7H-pyrazolo[4,3-d]pyrimidin-7-one]: 6 nM; `C=CC(=O)N1CCC(n2nc(-c3ccc(C(F)(F)F)cc3)c3cccc(C(=O)OC)c32)C1` (stereo not drawn) [Compound 78, methyl 1-(1-acryloylpyrrolidin-3-yl)-3-(4-(trifluoromethyl)phenyl)-1H-indazole-7-carboxylate]: 21 nM.
For the compound `C=CC(=O)N1CC(n2nc(-c3ccc(C(F)(F)F)cc3)c3ncn(C)c(=O)c32)C1` [Compound 79, 1-(1-acryloylazetidin-3-yl)-6-methyl-3-(4-(trifluoromethyl)-phenyl)-1,6-dihydro-7H-pyrazolo[4,3-d]pyrimidin-7-one], the concentration giving a half-maximal response (EC50) came out at 7.2 nM.
Take `C=CC(=O)N1CC(n2nc(-c3ccc(C(F)(F)F)cc3)c3ncccc32)C1` [Compound 82, 1-(3-(3-(4-(trifluoromethyl)phen-yl)-1H-pyrazolo[4,3-b]pyridin-1-yl)azetidin-1-yl)prop-2-en-1-one]: the EC50 turned out to be 5 nM.
`C=C(C)C(=O)N1CC(n2nc(-c3ccc(C(F)(F)F)cc3)c3ncccc32)C1` [Compound 87, 2-methyl-1-(3-(3-(4-(trifluoro-methyl)phenyl)-1H-pyrazolo[4,3-b]pyridin-1-yl)azetidin-1-yl)prop-2-en-1-one]: the EC50 was determined as 7 nM.
For the compound `C=CC(=O)N1CCC(n2nc(-c3ccc(C(F)(F)F)cc3)c3cc(OC)cnc32)C1` (stereo not drawn) [Compound 94, 1-(3-(5-methoxy-3-(4-(trifluoro-methyl)phenyl)-1H-pyrazolo[3,4-b]pyridin-1-yl)pyrrolidin-1-yl)-prop-2-en-1-one], the EC50 came to 12 nM.
Consider `C=C(F)C(=O)N1CCC(n2nc(-c3ccc(C(F)(F)F)cc3)c3cc(OC)cnc32)C1` (stereo not drawn) [Compound 95, 2-fluoro-1-(3-(5-methoxy-3-(4-(trifluoromethyl)phenyl)-1H-pyrazolo[3,4-b]pyridin-1-yl)-pyrrolidin-1-yl)prop-2-en-1-one], for which the EC50 came to 30 nM.
Regarding `C=CC(=O)N1CCC(n2nc(-c3ccc(C(F)(F)F)cc3)c3cc(C)cnc32)C1` (stereo not drawn) [Compound 96, 1-(3-(5-methyl-3-(4-(trifluoro-methyl)phenyl)-1H-pyrazolo[3,4-b]pyridin-1-yl)pyrrolidin-1-yl)-prop-2-en-1-one], the EC50 is 4 nM.
Next, `C=CC(=O)N1CCC(n2nc(-c3ccc(C(F)(F)F)nc3)c3cccc(C(=O)NC(C)C)c32)C1` (stereo not drawn) [Compound 98, 1-(1-acryloylpyrrolidin-3-yl)-N-isopropyl-3-(6-(trifluoromethyl)-pyridin-3-yl)-1H-indazole-7-carboxamide]: 84 nM; `C=CC(=O)N1CCC(n2nc(-c3ccc(C(F)(F)F)nc3)c3cccc(C(=O)NC4CC4)c32)C1` (stereo not drawn) [Compound 100, 1-(1-acryloylpyrrolidin-3-yl)-N-cyclopropyl-3-(6-(trifluorometh-yl)pyridin-3-yl)-1H-indazole-7-carboxamide]: 50 nM.
Regarding `C=CC(=O)N1CCC(n2nc(-c3ccc(C(F)(F)F)nc3)c3cccc(C(=O)NC4COC4)c32)C1` (stereo not drawn) [Compound 101, 1-(1-acryloylpyrrolidin-3-yl)-N-(oxetan-3-yl)-3-(6-(trifluorometh-yl)pyridin-3-yl)-1H-indazole-7-carboxamide], the EC50 was determined as 97 nM.
Regarding `C=CC(=O)N1CCC(n2nc(-c3ccc(C(F)(F)F)nc3)c3cccc(C(=O)NC)c32)C1` (stereo not drawn) [Compound 102, 1-(1-acryloylpyrrolidin-3-yl)-N-methyl-3-(6-(trifluoromethyl)-pyridin-3-yl)-1H-indazole-7-carboxamide], the concentration giving a half-maximal response (EC50) was 183 nM.
The same measure for `C=CC(=O)N1CCC(n2nc(-c3ccc(C(F)(F)F)cc3)c3cccc(C(=O)N(C)C)c32)C1` (stereo not drawn) [Compound 103, 1-(1-acryloylpyrrolidin-3-yl)-N,N-dimethyl-3-(4-(trifluoromethyl)-phenyl)-1H-indazole-7-carbox-amide]: 158 nM.
Next, `C=CC(=O)N1CCC(n2nc(-c3ccc(C(F)(F)F)cc3)c3cccc(C(=O)NC4CCC(F)(F)CC4)c32)C1` (stereo not drawn) [Compound 111, 1-(1-acryloylpyrrolidin-3-yl)-N-(4,4-difluorocyclohexyl)-3-(4-(trifluoromethyl)phenyl)-1H-indazole-7-carboxamide]: 84 nM; `C=CC(=O)N1CCC(n2nc(-c3ccc(C(F)(F)F)cc3)c3cccc(C(=O)N4CCC(F)(F)C4)c32)C1` (stereo not drawn) [Compound 112, 1-(3-(7-(3,3-difluoropyrrolidine-1-carbonyl)-3-(4-(trifluoro-methyl)phenyl)-1H-indazol-1-yl)-pyrrolidin-1-yl)prop-2-en-1-one]: 86 nM.

In general, EC50 refers to the concentration at which the effect is half-maximal.
